Data on four compounds can be found in patent publication US11491244B2, “Labeled fluorocarbon agents for positron emission tomography imaging” (McMaster University, priority 2017, dated 2022).

Series [1] can be described thus: Solubility of the fluorinated product in fluorocarbons. Type of series: physicochemical.
The conditions of series [2]: neat perfluorocarbon; cited from earlier work.
Series [3] is described as follows: Stability of [18F]CF3(CF2)7(CH2)3F in water, with and without sonication. Format: physicochemical. Here is the method: [^18F]CF3(CF2)7(CH2)3F (125 MBq) in FC-72 (2 mL) was separated into 4 equal samples, and water (0.5 mL) was added to each with stirring. At 0.5, 1, 2 and 4 h, the water layer was removed and the amount of activity measured. In addition, [^18F]CF3(CF2)7(CH2)3F (28 MBq) in FC-72 (130 μL) and DI water (2 mL) was suspended in ice and sonicated using a Branson, Digital S450D Sonifier (Emerson Canada, Markham, ON, Canada) for 10 min at 10% amplitude, using 1 second on-1 second off pulses. The samples were centrifuged and the activity in the aqueous layers were measured using a gamma counter.
The focus shifted to using precursors with a propyl spacer in an attempt to minimize the influence of the electron withdrawing fluorine groups. The mesylate CF3(CF2)7(CH2)3OMs and tosylate CF3(CF2)7(CH2)3OTs were prepared and labelled with [^18F]F^−. The tosylate produced the desired compound (RCY 15%±3; n=5) when the reaction was heated to 75° C. for 30 min. While the overall yield was modest, the product could be easily isolated and separated from impurities by liquid-liquid extraction using FC-72 and water.

“Also recorded” adds a separate entry of the source.

As for `FCCC(F)(F)C(F)(F)C(F)(F)C(F)(F)C(F)(F)C(F)(F)C(F)(F)C(F)(F)F` [CF3(CF2)7(CH2)2F], in series [1], the “Solubility in FCs” value is reported as “good solubility in FCs”.

As to `FC(F)(F)C(F)(F)C(F)(F)C(F)(F)C(F)(F)C(F)(F)F` [PFH, perfluorohexane], in series [2], the “Water Solubility 25° C.” value was “Insoluble” and the “Water Solubility 25° C. (bound)” value was “(<25 ppm)”.

For the compound `FC(F)(F)C(F)(F)C(F)(F)C(F)(F)C(F)(F)C(F)(F)C(F)(F)C(F)(F)Br` [PFOB, perfluorooctylbromide], the “Water Solubility 25° C.” value in series [2] was “Insoluble”.

Regarding `FC(F)(F)C(F)(F)C(F)(F)C(F)(F)C(F)(F)C(F)(F)C(F)(F)C(F)(F)CCC[18F]` [[^18F]CF3(CF2)7(CH2)3F], the “Activity in the aqueous layer post-sonication” value in series [3] (FC-72 and DI water, sonicated without stabilizing surfactants) is “no activity was found in the aqueous layer”. In addition, the “Free [18F]F− by radioHPLC and radioTLC” value in series [3] (FC-72 solution extracted with water periodically over 4 h) is “no evidence of free [^18F]F^−”. Further, the “Loss of fluoride in vitro / in solution” value in series [3] (left in solution over the timeframe of the imaging studies) is recorded as “no signs of loss of fluoride; also recorded: stable with respect to loss of fluoride in vitro”.
